Data set [1] deals with Staphylococcus aureus. Put plainly: Bactericidal activity against Staphylococcus aureus ATCC 25923 assessed as assessed as eradication of bacterial cells at 1 to 4 times MIC measured after 0.5 to 1 hr by time killing analysis. The class given is functional, organism-based. To be noted: time 0.5-1 hrs.
The test system of data set [2] is Staphylococcus aureus. Put plainly: Antibacterial activity against Staphylococcus aureus ATCC 25923 assessed as fold increase in MIC pretreated with FeCl3 followed by compound addition and measured after 2 hrs by broth microdilution method. The class given is functional. (In general: Broth dilution looks for growth in wells or tubes with falling amounts of substance.)

Data set [3] relates to Staphylococcus aureus. Put plainly: Induction of morphological changes in Staphylococcus aureus ATCC 25923 assessed as adhesion at 2 times MIC measured after 0.5 hrs by SEM based analysis. The class given is functional, organism-based.
Data set [4] can be described thus: Toxicity in male BALB/c mouse assessed as survival rate at 62.6 mg/kg, ip measured after 6 days relative to control. Format: organism-based. As to conditions: in vivo, time 6 day.
In data set [5] the test system is Staphylococcus aureus. Put plainly: Antibacterial activity against Staphylococcus aureus ATCC 25923 pretreated with 2.5% mouse serum followed by compound addition and measured after 6 hrs by broth microdilution method (reference value: 8 microM). Format: functional.
Data set [6] is described as follows: Toxicity in male BALB/c mouse assessed as hemorrhage in liver at 46.88 mg/kg, ip administered as single dose by H and E staining based analysis. The class given is organism-based. As to conditions: in vivo.
For data set [7], the system named is Cell membrane. Put plainly: Induction of cytoplasmic membrane depolarization in Pseudomonas aeruginosa ATCC 27853 assessed as increase in fluorescence intensity measured upto 12 min by DiSC3-5 dye based fluorescence method. The class given is cell membranes.
Data set [8] is described as follows: Toxicity in male BALB/c mouse assessed as inflammatory cell infiltration in kidney at 46.88 mg/kg, ip administered as single dose by H and E staining based analysis. To be noted: in vivo. Format: organism-based.
Data set [9] has as its system Staphylococcus aureus. Put plainly: Induction of morphological changes in Staphylococcus aureus ATCC 25923 assessed as increase in volume of swelling at 2 times MIC measured after 2 hrs by SEM based analysis. The class given is functional, organism-based.
Data set [10] deals with Staphylococcus aureus. Kind of data set: Antibacterial activity against Staphylococcus aureus ATCC 25923 assessed as fold increase in MIC pretreated with MgCl2 followed by compound addition and measured after 2 hrs by broth microdilution method. The class given is functional.
For data set [11], the system named is Staphylococcus aureus. Kind of data set: Antibacterial activity against Staphylococcus aureus ATCC 25923 pretreated with ZnCl2 followed by compound addition and measured after 2 hrs by broth microdilution method (reference value: 8 microM). The class given is functional.
The subject of data set [12] is Staphylococcus aureus. Put plainly: Antibacterial activity against Staphylococcus aureus ATCC 25923 pretreated with 5% mouse serum followed by compound addition and measured after 6 hrs by broth microdilution method (reference value: 8 microM). Format: functional.
For data set [13], the system named is Cell membrane. Put plainly: Induction of cytoplasmic membrane depolarization in Staphylococcus aureus ATCC 25923 assessed as increase in fluorescence intensity at 1/2 to 4 times MIC measured within 1 min by DiSC3-5 dye based fluorescence method. Format: cell membranes.
The test system of data set [14] is Pseudomonas aeruginosa. Put plainly: Antibacterial activity against Pseudomonas aeruginosa ATCC 27853 assessed as fold increase in MIC pretreated with 2.5 to 20% mouse serum followed by compound addition and measured after 6 hr by broth microdilution method. The class given is functional.
The test system of data set [15] is Staphylococcus aureus. Kind of data set: Induction of morphological changes in Staphylococcus aureus ATCC 25923 assessed as leakage of cellular content at 2 times MIC measured after 0.5 hrs by SEM based analysis. The class given is functional, organism-based.
The subject of data set [16] is Staphylococcus aureus. Put plainly: Antibacterial activity against Staphylococcus aureus ATCC 25923 pretreated with 2.5% mouse serum followed by compound addition and measured after 6 hrs by broth microdilution method (reference value: 64 microM). Format: functional.
Data set [17] concerns Staphylococcus aureus. Put plainly: Antibacterial activity against Staphylococcus aureus ATCC 25923 pretreated with 5% mouse serum followed by compound addition and measured after 1 hr by broth microdilution method (reference value: 64 microM). Format: functional.
Data set [18] deals with Staphylococcus aureus. Kind of data set: Antibacterial activity against Staphylococcus aureus ATCC 25923 pretreated with 10% mouse serum followed by compound addition and measured after 6 hrs by broth microdilution method (reference value: 64 microM). Format: functional.
For data set [19], the system named is Pseudomonas aeruginosa. Kind of data set: Bactericidal activity against Pseudomonas aeruginosa ATCC 27853 assessed as assessed as eradication of bacterial cells at 2 to 4 times MIC measured after 0.5 hr by time killing analysis. Format: functional, organism-based.
The test system of data set [20] is Cell membrane. Put plainly: Induction of outer membrane permeabilization in Pseudomonas aeruginosa ATCC 27853 assessed increase in fluorescence intensity at 1/2 MIC measured upto 12 mins by fluorescence based NPN uptake assay. The class given is cell membranes.
For data set [21], the system named is Staphylococcus aureus. Put plainly: Antibacterial activity against Staphylococcus aureus ATCC 25923 pretreated with 20% mouse serum followed by compound addition and measured after 1 hr by broth microdilution method (reference value: 64 microM). Format: functional.
Data set [22] concerns Pseudomonas aeruginosa. Kind of data set: Antibacterial activity against Pseudomonas aeruginosa ATCC 27853 assessed as fold increase in MIC pretreated with 2.5 to 20% mouse serum followed by compound addition and measured after 1 hr by broth microdilution method. The class given is functional.
Data set [23] concerns Staphylococcus aureus. Kind of data set: Antibacterial activity against Staphylococcus aureus ATCC 25923 pretreated with Mgcl2 followed by compound addition and measured after 2 hrs by broth microdilution method (reference value: 64 microM). Format: functional.
Data set [24] relates to Staphylococcus aureus. Kind of data set: Bactericidal activity against Staphylococcus aureus ATCC 25923 assessed as assessed as eradication of bacterial cells at 1/2 to 4 times MIC measured after 0.5 hr by time killing analysis. The class given is functional, organism-based.
Data set [25] deals with Staphylococcus aureus. Put plainly: Antibacterial activity against Staphylococcus aureus ATCC 25923 pretreated with Kcl followed by compound addition and measured after 2 hrs by broth microdilution method (reference value: 16 microM). The class given is functional, organism-based.
The subject of data set [26] is Staphylococcus aureus. Put plainly: Antibacterial activity against Staphylococcus aureus ATCC 25923 pretreated with 2.5% mouse serum followed by compound addition and measured after 6 hrs by broth microdilution method (reference value: 16 microM). The class given is functional, organism-based.
Data set [27] concerns Cell membrane. Put plainly: Induction of outer membrane permeabilization in Pseudomonas aeruginosa ATCC 27853 assessed increase in fluorescence intensity measured after 12 mins by fluorescence based NPN uptake assay. Format: cell membranes.
For data set [28], the system named is Pseudomonas aeruginosa. Put plainly: Bactericidal activity against Pseudomonas aeruginosa ATCC 27853 assessed as assessed as eradication of bacterial cells at 2 to 4 times MIC measured after 0.5 hr by time killing analysis relative to control. The class given is functional, organism-based.
In data set [29] the test system is Pseudomonas aeruginosa. Kind of data set: Antibiofilm activity against Pseudomonas aeruginosa ATCC 27853 assessed as biofilm eradication at 1/2 to 4 times MIC measured after 24 hrs by crystal violet staining based analysis. Format: functional, organism-based.
Data set [30] concerns Staphylococcus aureus. Put plainly: Antibacterial activity against Staphylococcus aureus ATCC 25923 pretreated with 2.5% mouse serum followed by compound addition and measured after 1 hrs by broth microdilution method (reference value: 16 microM). Format: functional, organism-based.
Data set [31] has as its system Cell membrane. Put plainly: Induction of cytoplasmic membrane depolarization in Staphylococcus aureus ATCC 25923 assessed as increase in fluorescence intensity at 4 times MIC measured upto 12 min by DiSC3-5 dye based fluorescence method. Format: cell membranes.

Usually MIC stands for the lowest concentration found to suppress growth.

Converted amounts (≈) assume the structure as drawn. The source made the active and inactive calls. The calls are words filed in the database; no cut-off is given here. Bridge positions count the residues as written; N and C are the ends. Square brackets hold non-standard residues; d marks the D form. Peptide text beside a SMILES is read from it. * marks the point of attachment. ξ: configuration not given here. Hexanoyl(4ξ-Me) = CCC(C)CCC(=O)*; dOrn = NCCC[C@@H](N)C(=O)O; Orn = NCCC[C@H](N)C(=O)O

`CCCCCCCCCC(=O)N[C@H](CCCN)C(=O)N[C@H](Cc1ccc(O)cc1)C(=O)N[C@H](Cc1c[nH]c2ccccc12)C(=O)N[C@H](CCCN)C(=O)N[C@@H](CCCN)C(=O)NCC(=O)N[C@H](CCCN)C(=O)N[C@@H](Cc1c[nH]c2ccccc12)C(=O)N[C@H](C(=O)N[C@H](C(=O)NCC(=O)N[C@@H](CO)C(=O)O)[C@@H](C)CC)[C@@H](C)O`: the outcome in the data set on Staphylococcus aureus [1], with Staphylococcus aureus [3] and in the data set with Staphylococcus aureus [9] was Active. The “fold change (FC)” value in the data set with Staphylococcus aureus [2] and with Staphylococcus aureus [10] was 2 throughout. Moreover, the survival at 144 h in data set [4] is 12.5%. Moreover, the values for the minimal inhibitory concentration (MIC) with Staphylococcus aureus [5], in the data set with Staphylococcus aureus [11] and in the data set on Staphylococcus aureus [12] were 16 µM (≈ 25.3 µg/mL), 32 µM (≈ 50.6 µg/mL) and 16 µM (≈ 25.3 µg/mL), respectively. Further, the Activity result is “Toxic” in data set [6], “Dose-Dependent Effect” in the data set with Cell membrane [7] and “Toxic” in data set [8].
`CCC(C)CCC(=O)N[C@H](CC(N)=O)C(=O)N[C@H](Cc1ccc(O)cc1)C(=O)N[C@H](Cc1c[nH]c2ccccc12)C(=O)N[C@H](CCCN)C(=O)N[C@@H](CCCN)C(=O)NCC(=O)N[C@H](CCCN)C(=O)N[C@@H](Cc1c[nH]c2ccccc12)C(=O)N[C@@H]1C(=O)N[C@@H]([C@@H](C)CC)C(=O)NCC(=O)N[C@@H](CO)C(=O)O[C@@H]1C` (stereo partly specified) ({Hexanoyl(4ξ-Me)}-[dN][dY][dW][dOrn][Orn]G[dOrn]WTIGS; ester 9-C): the outcome in the data set on Cell membrane [13], in the data set with Staphylococcus aureus [15], in the data set with Pseudomonas aeruginosa [19] and with Staphylococcus aureus [24] was Active. Also, the figures for the “fold change (FC)” value in the data set with Pseudomonas aeruginosa [14] and in the data set with Pseudomonas aeruginosa [22] were 4 and 2, respectively. Also, the MIC in the data set on Staphylococcus aureus [16] was 128 µM (≈ 195 µg/mL); in the data set with Staphylococcus aureus [17] it was 64 µM (≈ 97.3 µg/mL); with Staphylococcus aureus [18], 128 µM (≈ 195 µg/mL); in the data set on Staphylococcus aureus [21] it was 128 µM (≈ 195 µg/mL); in the data set with Staphylococcus aureus [23], 64 µM (≈ 97.3 µg/mL). Besides, the outcome in the data set on Cell membrane [20] was inactive.
For POLYMYXIN B, the MIC came to 8 µM in the data set with Staphylococcus aureus [25], 16 µM with Staphylococcus aureus [26] and 16 µM with Staphylococcus aureus [30]. Also, the Activity entry was “Dose-Dependent Effect” with Cell membrane [27] and 100% in the data set on Pseudomonas aeruginosa [28]. Also, the outcome in the data set with Pseudomonas aeruginosa [29] was Active. Besides, the outcome in the data set with Cell membrane [31] was inactive.

Values taken from ChEMBL document CHEMBL5512645, “A novel antimicrobial peptide with broad-spectrum and exceptional stability derived from the natural peptide Brevicidine” (Eur J Med Chem, 2024).
